Among the data in patent US20080221086A1, “Novel Inhibitors of Glutaminyl Cyclase” (PROBIODRUG AG, priority 2006, published 2008) are IC50 values, retold here.

Sequence of hQC (Q16769 29-361): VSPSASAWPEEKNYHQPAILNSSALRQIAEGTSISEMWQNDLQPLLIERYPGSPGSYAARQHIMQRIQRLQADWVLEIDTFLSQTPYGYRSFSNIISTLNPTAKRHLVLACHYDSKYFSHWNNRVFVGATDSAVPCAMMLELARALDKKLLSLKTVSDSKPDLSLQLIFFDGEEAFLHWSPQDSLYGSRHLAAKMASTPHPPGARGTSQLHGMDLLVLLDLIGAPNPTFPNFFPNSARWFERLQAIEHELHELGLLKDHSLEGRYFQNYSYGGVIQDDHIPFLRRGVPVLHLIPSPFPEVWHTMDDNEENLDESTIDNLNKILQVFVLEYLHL

In one experiment the target is hQC (Homo sapiens, UniProt Q16769). Nature of the experiment: Fluorometric assay of glutaminyl cyclase (QC) inhibition, H-Gln-βNA or H-Gln-AMC substrate. The format is biochemical. The conditions noted are these: compound from preparative synthesis, purified by chromatography; fluorescent assay; read-out: IC50 hQC. An outline of the steps:
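Fluorometric coupled assays at 30° C in Tris/HCl pH 8.0 with EDTA and pyroglutamyl aminopeptidase used either 0.2 mM H-Gln-βNA (320/410 nm) or H-Gln-AMC (380/460 nm), started by QC. Screening used 4 mM inhibitor at substrate 1 KM. Ki came from fitting progress curves to competitive inhibition.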
A word on the IC50: it is the concentration needed to halve the response being measured. For `O=C1N/C(=N\C2CCCC2)C(c2ccc(Cl)cc2)N1c1ccc2[nH]cnc2c1` (stereo not shown) [Compound 211, 1-(1H-Benzoimidazol-5-yl)-5-(4-chloro-phenyl)-4-cyclopentylimino-imidazolidin-2-one], the IC50 was found to be 0.0377 µM.

The same experiment, now with this note: read-out: IC50.
`O=C1N/C(=N\Cc2ccccc2)C(c2cccc(Br)c2)N1c1ccc2nc[nH]c2c1` (stereo not shown) [Compound 177, 1-(1H-benzo[d]imidazol-6-yl)-4-(benzylimino)-5-(3-bromophenyl)imidazolidin-2-one]: the IC50 is 0.004 µM.

Consider `CC(C)C1/C(=N\C(C)(C)CC(C)(C)C)NC(=S)N1c1ccc2[nH]cnc2c1` (stereo not shown) [Compound 178, 1-(1H-Benzoimidazol-5-yl)-5-isopropyl-4-1,1,3,3-tetramethyl-butylimino-imidazolidine-2-thione], for which the IC50 was determined as 6.7 µM.

`O=C(CN=C1NC(=O)N(c2ccc3nc[nH]c3c2)C1c1cc(Br)cc(Br)c1)N1CCSCC1` (stereo not shown) [Compound 179, 1-(3H-Benzoimidazol-5-yl)-5-(3,5-dibromo-phenyl)-4-2-oxo-2-thiomorpholin-4-yl-ethylimino-imidazolidin-2-one]: the IC50 amounted to 4 µM.

Regarding `CN(C)c1ccc(C2/C(=N\Cc3cccnc3)NC(=O)N2c2ccc3[nH]cnc3c2)cc1` (stereo not shown) [Compound 180, 1-(1H-Benzoimidazol-5-yl)-5-(4-dimethylamino-phenyl)-4-pyridin-3-ylmethylimino-imidazolidin-2-one], the IC50 was 0.4 µM.

Turning to `CSc1ccc(C2C(=NCn3nnc4ccccc43)NC(=O)N2c2ccc3[nH]cnc3c2)cc1` (stereo not shown) [Compound 181, 1-(1H-Benzoimidazol-5-yl)-4-benzotriazol-1-ylmethylimino-5-(4-methylsulfanyl-phenyl)-imidazolidin-2-one], the IC50 came out at 1.3 µM.

For `O=C(C/N=C1\NC(=S)N(c2ccc3nc[nH]c3c2)C1c1cc(Br)cs1)N1CCc2ccccc2C1` (stereo not shown) [Compound 182, 2-(1-(1H-benzo[d]imidazol-6-yl)-5-(4-bromothiophen-2-yl)-2-thioxoimidazolidin-4-ylideneamino)-1-(3,4-dihydroisoquinolin-2(1H)-yl)ethanone], the IC50 is 1.3 µM.

Turning to `O=C1N/C(=N\C2CCCCC2)C(c2cc(Br)cs2)N1c1ccc2[nH]cnc2c1` (stereo not shown) [Compound 184], the IC50 was determined as 1.3 µM.

For the compound `O=C(CN=C1NC(=S)N(c2ccc3nc[nH]c3c2)C1c1c(F)ccc(Cl)c1F)N1CCCCC1` (stereo not shown) [Compound 185, 2-(1-(1H-benzo[d]imidazol-6-yl)-5-(3-chloro-2,6-difluorophenyl)-2-thioxoimidazolidin-4-ylideneamino)-1-(piperidin-1-yl)ethanone], the IC50 came to 0.4 µM.

Consider `O=C1N/C(=N\C2CCCC2)C(c2cc(Br)cc(Br)c2)N1c1ccc2[nH]cnc2c1` (stereo not shown) [Compound 186, 1-(1H-Benzoimidazol-5-yl)-4-cyclopentylimino-5-(3,5-dibromo-phenyl)-imidazolidin-2-one], for which the IC50 came to 0.004 µM.

With `O=C(CN=C1NC(=S)N(c2ccc3nc[nH]c3c2)C1c1cc(Br)cs1)N1CCCCC1` (stereo not shown) [Compound 187, 2-(1-(1H-benzo[d]imidazol-6-yl)-5-(4-bromothiophen-2-yl)-2-thioxoimidazolidin-4-ylideneamino)-1-(piperidin-1-yl)ethanone], the IC50 was determined as 0.4 µM.

In the case of `Fc1ccc(Cl)c(F)c1C1/C(=N/c2c(Cl)cccc2Cl)NC(=S)N1c1ccc2nc[nH]c2c1` (stereo not shown) [Compound 188, 1-(3H-Benzoimidazol-5-yl)-5-(3-chloro-2,6-difluoro-phenyl)-4-2,6-dichloro-phenylimino-imidazolidine-2-thione], the IC50 stood at 6.7 µM.

In the case of `Cc1cccc(C2/C(=N\Cn3nnc4ccccc43)NC(=O)N2c2ccc3nc[nH]c3c2)n1` (stereo not shown) [Compound 189, 1-(3H-Benzoimidazol-5-yl)-4-benzotriazol-1-ylmethylimino-5-(6-methyl-pyridin-2-yl)-imidazolidin-2-one], the IC50 came to 4 µM.

Take `O=C1NC(=NC2CCCc3ccccc32)C(c2ccccc2Cl)N1c1ccc2[nH]cnc2c1` (stereo not shown) [Compound 190, 1-(1H-Benzoimidazol-5-yl)-5-(2-chloro-phenyl)-4-1,2,3,4-tetrahydro-naphthalen-1-ylimino-imidazolidin-2-one]: the IC50 was 0.4 µM.

In the case of `S=C1NC(=NC2CCc3ccccc32)C(c2ccnc3ccccc23)N1c1ccc2[nH]cnc2c1` (stereo not shown) [Compound 191, 1-(1H-Benzoimidazol-5-yl)-4-indan-1-ylimino-5-quinolin-4-yl-imidazolidine-2-thione], the IC50 is 9.4 µM.

Consider `O=c1c(C2/C(=N/c3cc(Cl)ccc3Cl)NC(=S)N2c2ccc3[nH]cnc3c2)coc2ccccc12` (stereo not shown) [Compound 192, 3-{3-(1H-Benzoimidazol-5-yl)-5-2,5-dichloro-imidazolidin-4-yl}-chromen-4-one], for which the IC50 was found to be 3.1 µM.

Take `CC1=CC(C)C(C2/C(=N/C3CCc4ccccc43)NC(=O)N2c2ccc3[nH]cnc3c2)CC1` (stereo not shown) [Compound 193, 1-(1H-Benzoimidazol-5-yl)-5-(2,4-dimethyl-cyclohex-3-enyl)-4-indan-1-ylimino-imidazolidin-2-one]: the IC50 came to 4.9 µM.

Take `S=C1N/C(=N\c2cc(Cl)ccc2Cl)C(c2ccc(Cl)cc2)N1c1ccc2[nH]cnc2c1` (stereo not shown) [Compound 194, 1-(1H-Benzoimidazol-5-yl)-5-(4-chloro-phenyl)-4-2,5-dichloro-phenylimino-imidazolidine-2-thione]: the IC50 is 6.7 µM.

As for `C/N=C1/NC(=O)N(c2ccc3[nH]cnc3c2)C1c1ccc2c(c1)OCO2` (stereo not shown) [Compound 195, 5-Benzo1,3dioxol-5-yl-1-(1H-benzoimidazol-5-yl)-4-methylimino-imidazolidin-2-one], the IC50 turned out to be 1.3 µM.

For `O=C1N/C(=N\C2CCCCC2)C(c2cc3c(cc2Br)OCO3)N1c1ccc2nc[nH]c2c1` (stereo not shown) [Compound 196, 1-(3H-Benzoimidazol-5-yl)-5-(6-bromo-benzo1,3-dioxol-5-yl)-4-cyclohexylimino-imidazolidin-2-one], the half-inhibitory concentration (IC50) came to 0.004 µM.

Regarding `CC(CC1/C(=N/C2CCCc3ccccc32)NC(=O)N1c1ccc2[nH]cnc2c1)CC(C)(C)C` (stereo not shown) [Compound 197, 1-(1H-Benzoimidazol-5-yl)-4-1,2,3,4-tetrahydro-naphthalen-1-ylimino-5-(2,4,4-trimethyl-pentyl)-imidazolidin-2-one], the IC50 worked out at 9.4 µM.

As to `O=C1N/C(=N\C2CCc3ccccc32)CN1c1ccc2[nH]cnc2c1` (stereo not shown) [Compound 198, 1-(1H-Benzoimidazol-5-yl)-4-indan-1-ylimino-imidazolidin-2-one], the IC50 is 4 µM.

Consider `CC1=CC(C)C(C2/C(=N/C(C)(C)CC(C)(C)C)NC(=S)N2c2ccc3nc[nH]c3c2)CC1` (stereo not shown) [Compound 200, 1-(3H-Benzoimidazol-5-yl)-5-(2,4-dimethyl-cyclohex-3-enyl)-4-1,1,3,3-tetramethyl-butylimino-imidazolidine-2-thione], for which the IC50 is 5.8 µM.

Turning to `O=C(C/N=C1/NC(=O)N(c2ccc3nc[nH]c3c2)C1c1cc2c(cc1Br)OCO2)N1CCSCC1` (stereo not shown) [Compound 201, 1-(3H-Benzoimidazol-5-yl)-5-(6-bromo-benzo1,3dioxol-5-yl)-4-2-oxo-2-thiomorpholin-4-yl-ethylimino-imidazolidin-2-one], the IC50 was determined as 4 µM.

With `Fc1ccc(/N=C2\NC(=S)N(c3ccc4[nH]cnc4c3)C2c2ccnc3ccccc23)cc1` (stereo not shown) [Compound 202, 1-(1H-Benzoimidazol-5-yl)-4-4-fluoro-phenylimino-5-quinolin-4-yl-imidazolidine-2-thione], the IC50 was 7.6 µM.

Consider `Cc1ccc2occ(C3/C(=N/C4CCCCC4O)NC(=S)N3c3ccc4[nH]cnc4c3)c(=O)c2c1` (stereo not shown) [Compound 203, 3-{3-(1H-Benzoimidazol-5-yl)-5-2-hydroxy-cyclohexylimino-2-thioxo-imidazolidin-4-yl}-6-methyl-chromen-4-one], for which the IC50 is 5.8 µM.

With `O=C1N/C(=N/Cn2nnc3ccccc32)C(c2cc3c(cc2Br)OCO3)N1c1ccc2nc[nH]c2c1` (stereo not shown) [Compound 204, 1-(3H-Benzoimidazol-5-yl)-4-benzotriazol-1-ylmethylimino-5-(6-bromo-benzo1,3dioxol-5-yl)-imidazolidin-2-one], the IC50 was 0.4 µM.

In the case of `O=C1N/C(=N\C2CCCCCC2)C(C2CCOC2)N1c1ccc2[nH]cnc2c1` (stereo not shown) [Compound 205, 1-(1H-Benzoimidazol-5-yl)-4-cycloheptylimino-5-(tetrahydro-furan-3-yl)-imidazolidin-2-one], the 50% inhibitory concentration (IC50) came to 9.4 µM.

Turning to `COC(=O)C(C)/N=C1\NC(=O)N(c2ccc3[nH]cnc3c2)C1C1CCC(C)=CC1C` (stereo not shown) [Compound 206, Methyl 2-(1-(1H-benzo[d]imidazol-5-yl)-5-(2,4-dimethylcyclohex-3-enyl)-2-oxoimidazolidin-4-ylideneamino)propanoate], the IC50 came out at 7.6 µM.

`O=C(C/N=C1\NC(=S)N(c2ccc3[nH]cnc3c2)C1c1cc2ccccc2s1)N1CCSCC1` (stereo not shown) [Compound 207, 2-(5-(benzo[b]thiophen-2-yl)-1-(1H-benzo[d]imidazol-5-yl)-2-thioxoimidazolidin-4-ylideneamino)-1-thiomorpholinoethan-one]: the IC50 was determined as 4 µM.

On to `O=C(C/N=C1/NC(=O)N(c2ccc3[nH]cnc3c2)C1c1ccc(Br)cc1)N1CCSCC1` (stereo not shown) [Compound 208, 1-(1H-Benzoimidazol-5-yl)-5-(4-bromo-phenyl)-4-2-oxo-2-thiomorpholin-4-yl-ethylimino-imidazolidin-2-one], for which the IC50 was 4 µM.

For `O=C1N/C(=N\CCCc2ccccc2)C(c2coc3ccccc3c2=O)N1c1ccc2[nH]cnc2c1` (stereo not shown) [Compound 209, 1-(1H-Benzoimidazol-5-yl)-5-(4-oxo-4H-chromen-3-yl)-4-3-phenyl-propylimino-imidazolidin-2-one], the IC50 was found to be 1.3 µM.

Turning to `S=C1N/C(=N\C2CCCC2)C(c2ccc(N3CCCC3)cc2)N1c1ccc2[nH]cnc2c1` (stereo not shown) [Compound 210, 1-(1H-Benzoimidazol-5-yl)-4-cyclopentylimino-5-(4-pyrrolidin-1-yl-phenyl)-imidazolidine-2-thione], the IC50 was found to be 3.1 µM.

With `O=C1N/C(=N\C2CCCC2)C(c2ccc(Cl)cc2)N1c1ccc2[nH]cnc2c1` (stereo not shown) [Compound 211, 1-(1H-Benzoimidazol-5-yl)-5-(4-chloro-phenyl)-4-cyclopentylimino-imidazolidin-2-one], the half-inhibitory concentration (IC50) was found to be 0.004 µM.
